Reference: PMC1197287 (PLoS Biology, 2005)

Key:
HCoV-229E M^pro = target: T1, HCoV-229E M^pro (Human coronavirus 229E, UniProt P0C6X1); experiment: biochemical
T1 construct: HCoV-229E M^pro (15 mg/ml; two amino acids deleted at C-terminal); made in house

IBV M^pro = IBV M^pro (Avian infectious bronchitis virus, UniProt P0C6Y3); experiment: biochemical
CoV M^pros = format: biochemical
TGEV M^pro = TGEV M^pro (Porcine transmissible gastroenteritis coronavirus, UniProt P0C6Y5); experiment: biochemical
FIPV M^pro = FIPV M^pro (Feline coronavirus, UniProt Q98VG9); experiment: biochemical; details: pH 7.3, read-out: kobs/[I]
MHV M^pro = MHV M^pro (Murine coronavirus, UniProt P0C6X9); experiment: biochemical; details: pH 7.3, read-out: kobs/[I]
HCoV-229E = experiment: microbe, parasite or virus in culture; format: cell-based; details: Human coronavirus 229E, MRC5, 14 h
SARS-CoV = details: cell-based assays; data to be published elsewhere
M^pro of HCoV-NL63 = M^pro of HCoV-NL63 (Human coronavirus NL63, UniProt P0C6X5); format: biochemical
M^pro of HCoV-HKU1 = M^pro of HCoV-HKU1 (Human coronavirus HKU1, UniProt P0C6X2); format: biochemical
SARS-CoV M^pro = SARS-CoV M^pro (Severe acute respiratory syndrome coronavirus, UniProt P0C6X7); experiment: biochemical
MHV-A59 [1] = experiment: organism not typed; format: cell-based; details: 14 h
DBT cells = experiment: Cytotoxicity assay (MTT); format: cell-based, murine; details: 500 μM, two days
Experimental: DBT cells were suspended in growth medium in 96-well plates. The next day, appropriate concentrations of the inhibitor were added to the medium. Two days later, the relative numbers of surviving cells were measured by MTT (Sigma, St. Louis, Missouri, United States) assay in accordance with the manufacturer's instructions.

TGEV = experiment: Cell-based assay of TGEV replication; details: cell-based assays; data to be published elsewhere
MHV-A59 [2] = experiment: MHV-A59 plaque-reduction assay in DBT cells; format: cell-based
Experimental: Murine DBT cells (generously provided by Dr. Lishan Su of University of North Carolina) were cultured in Dulbecco's modified Eagle's medium supplemented with 10% fetal bovine serum (FBS) and antibiotics at 37 °C in 5% CO2.
DBT cells were suspended in growth medium in triplicate wells in 6-well plates and preincubated with appropriate concentrations of the inhibitor. The next day, the medium was aspirated, and MHV-A59 was added to each well at a titer of 100 PFU/well. After incubation for 1 h, the virus inoculum was aspirated, and 2 ml of a media-agar overlay with appropriate concentrations of inhibitor was added to each well. The plates were further incubated for 24 h and stained with neutral red to visualize plaques.

FIPV = experiment: microbe, parasite or virus in culture; format: cell-based, FIPV (strain 79–1146); details: Alphacoronavirus 1, 14 h
rhinovirus = system: rhinovirus; parameters: method as in PMID 14638501, PMID 11796347; details: intranasal suspension; cited from earlier work
[3] = parameters: method as in PMID 14638501, PMID 11796347; details: cited from earlier work
[4] = parameters: method as in PMID 14638501, PMID 11796347; details: cited from earlier work; remark: listed apart in the source
CoVs = details: cited from earlier work
[5] = parameters: method as in PMID 14638501, PMID 11796347; details: in animals; cited from earlier work

Chain of IBV M^pro (P0C6Y3 2782-3088): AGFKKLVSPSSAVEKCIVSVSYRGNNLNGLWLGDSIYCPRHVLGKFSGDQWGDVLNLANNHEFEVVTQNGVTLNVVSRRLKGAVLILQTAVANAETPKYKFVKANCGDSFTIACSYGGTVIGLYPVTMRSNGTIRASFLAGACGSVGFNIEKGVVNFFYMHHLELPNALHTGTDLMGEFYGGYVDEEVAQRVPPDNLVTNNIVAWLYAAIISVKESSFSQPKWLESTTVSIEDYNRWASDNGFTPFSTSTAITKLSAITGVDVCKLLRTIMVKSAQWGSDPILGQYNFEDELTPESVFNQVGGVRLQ
Chain of TGEV M^pro (P0C6Y5 2879-3180): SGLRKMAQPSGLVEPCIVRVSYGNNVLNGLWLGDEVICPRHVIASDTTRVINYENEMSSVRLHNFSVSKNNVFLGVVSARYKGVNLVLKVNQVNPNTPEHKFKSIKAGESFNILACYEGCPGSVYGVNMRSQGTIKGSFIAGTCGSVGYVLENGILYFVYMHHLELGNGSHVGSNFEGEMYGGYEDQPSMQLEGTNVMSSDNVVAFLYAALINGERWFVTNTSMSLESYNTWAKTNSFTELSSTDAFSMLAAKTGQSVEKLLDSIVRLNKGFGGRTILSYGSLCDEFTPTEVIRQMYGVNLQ
T1 sequence (P0C6X1 2966-3265 limits assumed): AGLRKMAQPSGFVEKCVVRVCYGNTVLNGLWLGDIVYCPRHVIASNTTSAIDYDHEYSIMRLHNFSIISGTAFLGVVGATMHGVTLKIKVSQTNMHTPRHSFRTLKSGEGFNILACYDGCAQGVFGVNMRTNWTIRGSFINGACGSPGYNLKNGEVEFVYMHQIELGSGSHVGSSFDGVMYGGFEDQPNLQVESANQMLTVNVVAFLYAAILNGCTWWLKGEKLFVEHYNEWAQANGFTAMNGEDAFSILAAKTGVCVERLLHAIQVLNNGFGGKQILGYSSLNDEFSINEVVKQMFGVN
Chain of FIPV M^pro (Q98VG9 2904-3205): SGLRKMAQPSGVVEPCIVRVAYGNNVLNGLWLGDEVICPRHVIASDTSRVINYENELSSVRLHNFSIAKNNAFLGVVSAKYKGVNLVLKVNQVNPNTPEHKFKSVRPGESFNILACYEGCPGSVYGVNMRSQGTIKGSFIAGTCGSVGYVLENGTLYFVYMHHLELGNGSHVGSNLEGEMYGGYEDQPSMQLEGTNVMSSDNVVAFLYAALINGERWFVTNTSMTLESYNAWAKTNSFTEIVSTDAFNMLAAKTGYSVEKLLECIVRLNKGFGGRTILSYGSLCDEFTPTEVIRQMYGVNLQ
Chain of MHV M^pro (P0C6X9 3334-3635): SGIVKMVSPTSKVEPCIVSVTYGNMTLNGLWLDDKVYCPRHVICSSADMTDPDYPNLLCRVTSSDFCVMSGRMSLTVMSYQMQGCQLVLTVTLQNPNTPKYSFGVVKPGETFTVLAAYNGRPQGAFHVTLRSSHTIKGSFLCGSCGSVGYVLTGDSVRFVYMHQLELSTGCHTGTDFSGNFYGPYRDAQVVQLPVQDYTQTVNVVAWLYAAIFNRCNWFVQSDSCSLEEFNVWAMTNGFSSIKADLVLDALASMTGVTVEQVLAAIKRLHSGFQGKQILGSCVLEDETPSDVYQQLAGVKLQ
Chain of M^pro of HCoV-NL63 (P0C6X5 2940-3242): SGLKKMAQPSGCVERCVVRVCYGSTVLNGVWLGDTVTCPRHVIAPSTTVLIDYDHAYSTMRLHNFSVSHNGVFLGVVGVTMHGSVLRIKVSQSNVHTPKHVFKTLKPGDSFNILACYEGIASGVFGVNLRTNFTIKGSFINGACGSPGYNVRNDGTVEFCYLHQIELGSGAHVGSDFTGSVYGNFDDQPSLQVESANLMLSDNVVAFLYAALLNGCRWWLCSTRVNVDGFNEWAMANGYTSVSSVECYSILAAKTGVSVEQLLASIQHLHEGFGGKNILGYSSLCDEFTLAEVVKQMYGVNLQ
Chain of M^pro of HCoV-HKU1 (P0C6X2 3335-3637): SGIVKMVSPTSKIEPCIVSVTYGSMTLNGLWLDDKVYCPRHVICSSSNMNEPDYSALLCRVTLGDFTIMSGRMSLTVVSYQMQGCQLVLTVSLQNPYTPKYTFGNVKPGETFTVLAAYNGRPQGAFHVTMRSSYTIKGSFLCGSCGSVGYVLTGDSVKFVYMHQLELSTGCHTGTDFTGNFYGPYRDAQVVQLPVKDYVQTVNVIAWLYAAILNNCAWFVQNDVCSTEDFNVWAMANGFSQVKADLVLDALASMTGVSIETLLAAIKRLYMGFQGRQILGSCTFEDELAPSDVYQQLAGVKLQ

CCOC(=O)/C=C/[C@H](C[C@@H]1CCNC1=O)NC(=O)[C@H](CC(C)C)NC(=O)[C@@H](NC(=O)[C@H](C)NC(=O)c1cc(C)on1)C(C)C [N1]
Ki (HCoV-229E M^pro): 1.11 ± 0.09 µM
k3 (HCoV-229E M^pro): 14.8 ± 0.7 × 10^−3s^−1
Ki (IBV M^pro): 3.9 ± 0.9 µM
k3 (IBV M^pro; IBV M^pro, inactivation rate constant): 14.5 ± 1.2 × 10^−3s^−1
in vitro inactivation of all CoV M^pros tested (CoV M^pros): fast in vitro inactivation
k3, range over CoV M^pros (CoV M^pros): 4.1–50 × 10^−3s^−1
Ki (CoV M^pros; read-out: Ki, range over CoV M^pros): 1.11 to 10.7 µM
Ki (TGEV M^pro): 3.2 ± 0.2 µM
k3 (TGEV M^pro): 50 ± 3 × 10^−3s^−1
kinact/KI (FIPV M^pro): 24000 M⁻¹ s⁻¹
kinact/KI (MHV M^pro): 2800 M⁻¹ s⁻¹

Cc1cc(C(=O)N[C@@H](C)C(=O)N[C@H](C(=O)N[C@@H](CC(C)C)C(=O)N[C@H](/C=C/C(=O)OCc2ccccc2)C[C@@H]2CCNC2=O)C(C)C)no1 [N3]
IC50 (HCoV-229E): 4 µM
Ki (HCoV-229E M^pro): 1.67 ± 0.18 µM
k3 (HCoV-229E M^pro): 18.0 ± 1.1 × 10^−3s^−1
inhibition of replication of SARS-CoV (SARS-CoV): strongly inhibit
inhibition on M^pro of HCoV-NL63 (M^pro of HCoV-NL63): potent inhibition
inhibition on M^pro of HCoV-HKU1 (M^pro of HCoV-HKU1): potent inhibition
kinact/KI (IBV M^pro; pH 7.3, read-out: kobs/[I]): 7900 M⁻¹ s⁻¹
Ki (SARS-CoV M^pro): 9 ± 0.8 µM
k3 (SARS-CoV M^pro): 3.1 ± 0.5 × 10^−3s^−1
IC50 (MHV-A59 [1]): 2.7 µM
inhibition of cell growth (DBT cells): 28.3%
inhibition of replication of TGEV (TGEV): strongly inhibit
in vitro inactivation of all CoV M^pros tested (CoV M^pros): fast in vitro inactivation
kinact/KI (TGEV M^pro; pH 7.3, read-out: kobs/[I]): 13000 M⁻¹ s⁻¹
protection of DBT cells from MHV infection (MHV-A59 [2]; 8 μM N3): sufficiently protected
EC50 (MHV-A59 [2]; DBT cells, low-multiplicity (MOI = 0.01)): 3.4 µM
kinact/KI (FIPV M^pro): 47000 M⁻¹ s⁻¹
IC50 (FIPV): 8.8 µM
kinact/KI (MHV M^pro): 4800 M⁻¹ s⁻¹

CCOC(=O)/C=C/[C@H](C[C@@H]1CCNC1=O)NC(=O)[C@@H](CC(=O)[C@@H](NC(=O)c1cc(C)on1)C(C)C)Cc1ccc(F)cc1 [Ruprintrivir, ruprintrivir]
effect of prophylaxis in Phase II studies (rhinovirus): reduced the proportion of subjects with positive viral cultures and viral titers
aqueous solubility [3]: poor
most common adverse effects [4]: blood-tinged mucus and nasal passage irritation
tolerability [4]: well tolerated
inhibition of CoVs (CoVs): did not show inhibition
oral bioavailability [5]: low
